Data from PMC6220787 (Clinical Pharmacology in Drug Development, 2018).
Like-named read-outs stand apart in the source and are kept apart here.

Experiments:
[1] = Pharmacokinetics of chlorogenic acids; type: in vivo, human; conditions: for AUC0–4 h / tmax: analyte in blood after product 1, oral, healthy male subjects; for AUC0–4 h: mean (SD); for tmax: median (min, max)
[2] = cited from earlier work
[3] = analytical recovery test in plasma; cited from earlier work
[4] = type: in vivo, human
[5] = 60 mg of caffeine, single oral dose, healthy male subjects
[6] = healthy subjects, 412 μmol of CGA in 200 mL of coffee; cited from earlier work
[7] = after product 1, relative to 4‐CQA
[8] = after product 1, relative to 5‐CQA

In the case of O=C(/C=C/c1ccc(O)c(O)c1)O[C@@H]1C[C@](O)(C(=O)O)C[C@@H](O)[C@H]1O [3‐CQA, 3‐O‐caffeoylquinic acid], the “AUC0–4 h greater than that of 4‐CQA” value [1, 7] is reported as about 41%, the “concentration (Cmax) greater than that of 4‐CQA” value [1, 7] is reported as 60% and the “AUC0–4 h greater than that of 5‐CQA” value [1, 8] is reported as 42.5%. For the same molecule, the “concentration (Cmax) greater than that of 5‐CQA” value [1, 8] was 58%.
For Cn1c(=O)c2c(ncn2C)n(C)c1=O [caffeine], the “caffeine half‐life” value ([2]; adult men, dose of 4 mg/kg) is given as 2.5 to 4.5 h, the “mean half‐life of caffeine in plasma” value ([2]; healthy individuals) is given as “about 5 hours” and the “known half‐life of caffeine” value ([2]; stated as known) is given as about 5 h. The “known tmax of caffeine” value ([2]; stated as known) was “approximately 60 minutes”.
In the case of O=C(/C=C/c1ccc(O)c(O)c1)O[C@@H]1C[C@](O)(C(=O)O)C[C@@H](O)[C@H]1O [5‐CQA, 5‐O‐caffeoylquinic acid], the “hydrolyzed into caffeic acid” value [3] is given as about 7%, the “AUC0–4 h” value [1] is given as 15.7 (10.4) ng·h/mL and the tmax [1] is given as 1.50 (0.75, 2.50) h.
With Cn1c(=O)c2c(ncn2C)n(C)c1=O [Product 2, caffeine] the “GMR (90%CI) of AUC0–4 h of caffeine” value ([4]; geometric least‐squares mean ratio, product 1 to product 2) was 98.33%, the AUC(0-t) ([4]; male, human, serum, oral, 60 mg) was 5600 ng·h/mL and the Cmax ([4]; male, human, serum, po, 60 mg) was 2090 ng/mL. For the same molecule, the tmax ([4]; male, human, serum, po, 60 mg) was 0.63 h and the adverse events [5] was “no adverse events”.
For COc1cc(CCC(=O)O)ccc1O [dihydroferulic acid], the tmax in plasma [6] is given as 5.2 h.
In the case of O=C(/C=C/c1ccc(O)c(O)c1)O[C@H]1[C@H](O)C[C@](O)(C(=O)O)C[C@H]1O [4‐CQA, 4‐O‐caffeoylquinic acid], the “AUC0–4 h” value [1] is reported as 16.1 (9.80) ng·h/mL and the tmax [1] is reported as 1.00 (0.75, 4.00) h.
